Reference: article PMC4052546 (Pharmaceuticals, 2011)
Several values for one entry are separate records, joined by “and”; a condition that tells them apart may be missing. Equal values may be shown once. Read-outs that look alike come from different tables or passages of the source.

Columns and labels:
[1] = Pharmacokinetics of AS and DHA in rat plasma after single and multiple intravenous AS injections (automated blood sampler, LC-MS/MS);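 as to all read-outs here: blood drawn through a jugular vein catheter by an automated sampling system, plasma drug levels measured by LC-MS/MS with positive electrospray ionization against standard curves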; assay type: in vivo, Sprague-Dawley rats; conditions: for AUC0–3 h / Cmin / Degree of Fluctuation = 100% × (Cmax − Cmin)/Cav / Cmax / MRT / Tmax / AUC(0-t) / AUC / half-life / average plasma concentration over 0–72 h (Cav = AUC0–72 h/72): 20 mg/kg i.v. daily for 3 days, male rats; for Cmax / MRT / Tmax / AUC(0-t) / AUC / half-life / average plasma concentration over 0–72 h (Cav = AUC0–72 h/72): male, Sprague-Dawley, rat, plasma, iv, 20 mg/kg; for AUC(0-t): read-out: AUC0–3 h; for AUC: read-out: AUCinfininty
Procedure: The Culex ABS is a blood sampling and metabolism monitoring machine, which is controlled by its own internal computer. We were successful in evaluating PK for long-term periods by using this system. After jugular vein cannulation, study animals were individually placed in the system, which allowed for a micro-pump to infuse heparinized-saline (10 unit heparin/mL saline) at a rate of 1-2 μL/min to prevent coagulation within the catheter. Culex samples were obtained with precise blood volumes from the study animals and the total volume taken was less than 6% per day and 14% during the entire study period. Blood samples were maintained at 3 °C using Culex's temperature-controlled fractional collector. Plasma was separated from the blood samples and processed for drug extraction.
(§1) Three samples were collected during each phase of absorption, distribution, or elimination for full PK analysis on the first and last dosing days following intravenous bonus injection. Additionally, trough levels (pre-dose) samples were collected in between each dose to follow drug accumulation and a series PK approach (18 samples per animal) was used. Thus, each animal was dosed and plasma samples were obtained for up to three days. A total of 18 (0, 5, 15, 30, 45 min, 1, 2, 3, 6, 24.25, 48.167, 48.25, 48.5, 48.75, 49, 50, 51, and 54 h) samples were collected into cooled vials. 50 μL of blood per sample was collected pre-dosing and after dosing and 100 μL per sample was taken from 0.08 h to 56 h after dosing. During collection, blood samples were added into the vials, which contained dried heparin (50 units) on the bottom of each vial. Thus, a total blood volume of 1.75 mL was obtained from each rat during the three day treatment period (0.85 mL of blood on day 0, 0.1 mL on day 1, and 0.9 mL on day 2), which is 9.3% of the animals total blood volume. Subjects for replicated crossover design were followed FDA recommendation [22] with a 2 week wash out period. During wash-out period, if the catheter was blocked up by any reasons the jugular vein tubes were infused or replaced.
The samples were vortexed vigorously (set at 10 or max setting) for 8–10 sec followed by a 10,000 × g centrifugation at 4 °C for 10 min. Aliquots (approximately 250 μL ea) of the undisturbed supernatants were transferred into a 96-well plate for LC-MS/MS analyses. […] Drugs were chromatographically separated using an acetonitrile/ammonium acetate gradient through a Waters XTerra C18 column (2.1 × 50 mm, 3.5 μm particle size) and corresponding pre-column. Quantification was done using the most abundant daughter ions following positive electrospray ionization. Chromatograms were analyzed using Xcalibur mass spectrometry software. The responses-concentrations standard curves were fitted and weighted.
The area under the curve (AUC) was determined by the linear trapezoidal rule with extrapolation to infinity based on the concentration of the last time point divided by the terminal rate constant. The bioequivalence (BE) evaluation of the two formulations were analyzed by using BE software (WinNonlin 5.2, Pharsight Co. Mountain View, CA. USA) in rats for a NDA application.

[2] = rat, in vivo
Source text: An automated blood sampler (Culex ABS, Bioanalytical Systems, Inc. West Lafayette, IN) was used for rat blood sample collection.
as §1
The area under the curve (AUC) was determined by the linear trapezoidal rule with extrapolation to infinity based on the concentration of the last time point divided by the terminal rate constant.

[3] = more active; cited from earlier work
[4] = cited from earlier work
[5] = Chinese formulation (AS/NaHCO3), Period 1, Day 3
[6] = Chinese formulation (AS/NaHCO3), Period 2, Day 3
[7] = WRAIR formulation (AS/0.3M PBS Buffer), Period 1, Day 3
[8] = WRAIR formulation (AS/0.3M PBS Buffer), Period 2, Day 3
[9] = Chinese formulation (AS/NaHCO3), Period 1, Day 1
[10] = Chinese formulation (AS/NaHCO3), Period 2, Day 1
[11] = WRAIR formulation (AS/0.3M PBS Buffer), Period 1, Day 1
[12] = WRAIR formulation (AS/0.3M PBS Buffer), Period 2, Day 1
[13] = male, Sprague-Dawley, iv, 20 mg/kg, 1 day

For `C[C@H]1[C@@H](O)O[C@@H]2O[C@@]3(C)CC[C@H]4[C@H](C)CC[C@@H]1[C@@]24OO3` [DHA, dihydroartemisinin], which “AUC0–3 h” value [1, 5] is on record?
The value was 990.8 ± 224.7 ng·h/mL.

And the Cmin [1, 5]?
The Cmin was 2.96 ± 2.31 ng/mL.

And the “Degree of Fluctuation = 100% × (Cmax − Cmin)/Cav” value [1, 5]?
The value was 860% and 860.1 ± 121.1%.

And the “AUC0–3 h” value [1, 6]?
The value was 905.2 ± 188.7 ng·h/mL.

What about the Cmin [1, 6] of the same compound?
The Cmin was 4.52 ± 2.25 ng/mL.

What about the “Degree of Fluctuation = 100% × (Cmax − Cmin)/Cav” value [1, 6] of the same compound?
Its value is 844 ± 64%.

What about the “time at which Cmax was measured” value ([1]; Chinese formulation, 20 mg/kg i.v., rats, period 1, day 1) of the same compound?
Its value is 15 min.

What about the “time at which Cmax was measured” value ([1]; Chinese formulation, 20 mg/kg i.v., rats, period 2, day 1) of the same compound?
Its value is 15 min.

What about the “time at which Cmax was observed” value ([1]; Chinese formulation, 20 mg/kg i.v., rats, period 2, day 3) of the same compound?
The value was 15 min.

And the Cmin [1, 7]?
The Cmin was 6.59 ± 3.06 ng/mL.

What about the Cmin [1, 8] of the same compound?
The Cmin was 5.38 ± 3.77 ng/mL.

What about the “time at which Cmax was measured” value ([1]; WRAIR formulation, 20 mg/kg i.v., rats, period 1, day 1) of the same compound?
The value was 15 min.

What about the Cmax [1, 9] of the same compound?
Its Cmax is 3360 ng/mL.

And the MRT [1, 9]?
Its MRT is 22.8 ± 7.8 min.

What about the Tmax [1, 9] of the same compound?
Its Tmax is 15 min.

What about the AUC(0-t) [1, 9] of the same compound?
The AUC(0-t) was 1570 ng·h/mL.

What about the AUC [1, 9] of the same compound?
The AUC was 1570 ± 350 ng·h/mL.

What about the half-life ([1]; Chinese formulation (AS/NaHCO3), Period 1, Day 1, read-out: t1/2 distribution (converted)) of the same compound?
The half-life was 7.2 ± 1.2 min.

What about the half-life ([1]; Chinese formulation (AS/NaHCO3), Period 1, Day 1, read-out: t1/2 elimination (converted)) of the same compound?
The half-life was 45 ± 6 min.

What about the Cmax [1, 5] of the same compound?
The Cmax was 2780 ng/mL.

What about the MRT [1, 5] of the same compound?
Its MRT is 21 ± 3.6 min.

And the Tmax [1, 5]?
Its Tmax is 10.2 ± 5.4 min.

And the average plasma concentration over 0–72 h (Cav = AUC0–72 h/72) [1, 5]?
Its average plasma concentration over 0–72 h (Cav = AUC0–72 h/72) is 330 ng·h/mL.

What about the AUC(0-t) [1, 5] of the same compound?
Its AUC(0-t) is 991 ng·h/mL.

And the AUC [1, 5]?
Its AUC is 994 ± 225 ng·h/mL.

What about the half-life ([1]; Chinese formulation (AS/NaHCO3), Period 1, Day 3, read-out: t1/2 distribution (converted)) of the same compound?
Its half-life is 5.4 ± 0.6 min.

And the half-life ([1]; Chinese formulation (AS/NaHCO3), Period 1, Day 3, read-out: t1/2 elimination (converted))?
The half-life was 40.8 ± 9 min.

And the Cmax [1, 10]?
Its Cmax is 2690 ng/mL.

And the MRT [1, 10]?
Its MRT is 27.6 ± 8.4 min.

And the Tmax [1, 10]?
The Tmax was 15 min.

And the AUC(0-t) [1, 10]?
Its AUC(0-t) is 1220 ng·h/mL.

What about the AUC [1, 10] of the same compound?
The AUC was 1230 ± 266 ng·h/mL.

And the half-life ([1]; Chinese formulation (AS/NaHCO3), Period 2, Day 1, read-out: t1/2 distribution (converted))?
The half-life was 7.2 ± 1.2 min.

What about the half-life ([1]; Chinese formulation (AS/NaHCO3), Period 2, Day 1, read-out: t1/2 elimination (converted)) of the same compound?
Its half-life is 43.8 ± 10.2 min.

What about the Cmax [1, 6] of the same compound?
The Cmax was 2450 ng/mL.

And the MRT [1, 6]?
Its MRT is 22.8 ± 1.2 min.

What about the Tmax [1, 6] of the same compound?
The Tmax was 15 min.

What about the AUC(0-t) [1, 6] of the same compound?
Its AUC(0-t) is 905 ng·h/mL.

What about the AUC [1, 6] of the same compound?
The AUC was 910 ± 188 ng·h/mL.

What about the half-life ([1]; Chinese formulation (AS/NaHCO3), Period 2, Day 3, read-out: t1/2 distribution (converted)) of the same compound?
Its half-life is 4.8 ± 0.6 min.

And the half-life ([1]; Chinese formulation (AS/NaHCO3), Period 2, Day 3, read-out: t1/2 elimination (converted))?
Its half-life is 43.2 ± 7.2 min.

And the Cmax [1, 11]?
The Cmax was 3150 ng/mL.

What about the MRT [1, 11] of the same compound?
Its MRT is 23.4 ± 4.8 min.

What about the Tmax [1, 11] of the same compound?
Its Tmax is 15 min.

What about the AUC(0-t) [1, 11] of the same compound?
The AUC(0-t) was 1460 ng·h/mL.

What about the AUC [1, 11] of the same compound?
The AUC was 1460 ± 211 ng·h/mL.

And the half-life ([1]; WRAIR formulation (AS/0.3M PBS Buffer), Period 1, Day 1, read-out: t1/2 distribution (converted))?
Its half-life is 7.2 ± 0.6 min.

And the half-life ([1]; WRAIR formulation (AS/0.3M PBS Buffer), Period 1, Day 1, read-out: t1/2 elimination (converted))?
The half-life was 58.8 ± 8.4 min.

And the Cmax [1, 7]?
Its Cmax is 2810 ng/mL.

And the MRT [1, 7]?
The MRT was 20.4 ± 6.6 min.

What about the Tmax [1, 7] of the same compound?
Its Tmax is 15 min.

What about the average plasma concentration over 0–72 h (Cav = AUC0–72 h/72) [1, 7] of the same compound?
Its average plasma concentration over 0–72 h (Cav = AUC0–72 h/72) is 367 ng·h/mL.

What about the AUC(0-t) [1, 7] of the same compound?
The AUC(0-t) was 1100 ng·h/mL.

And the AUC [1, 7]?
The AUC was 1110 ± 174 ng·h/mL.

What about the half-life ([1]; WRAIR formulation (AS/0.3M PBS Buffer), Period 1, Day 3, read-out: t1/2 distribution (converted)) of the same compound?
Its half-life is 5.4 ± 0.6 min.

What about the half-life ([1]; WRAIR formulation (AS/0.3M PBS Buffer), Period 1, Day 3, read-out: t1/2 elimination (converted)) of the same compound?
The half-life was 54 ± 7.2 min.

And the Cmax [1, 12]?
Its Cmax is 3520 ng/mL.

What about the MRT [1, 12] of the same compound?
Its MRT is 24 ± 2.4 min.

What about the Tmax [1, 12] of the same compound?
Its Tmax is 15 min.

What about the AUC(0-t) [1, 12] of the same compound?
The AUC(0-t) was 1510 ng·h/mL.

And the AUC [1, 12]?
The AUC was 1510 ± 293 ng·h/mL.

What about the half-life ([1]; WRAIR formulation (AS/0.3M PBS Buffer), Period 2, Day 1, read-out: t1/2 distribution (converted)) of the same compound?
The half-life was 8.4 ± 0.6 min.

And the half-life ([1]; WRAIR formulation (AS/0.3M PBS Buffer), Period 2, Day 1, read-out: t1/2 elimination (converted))?
Its half-life is 54.6 ± 4.2 min.

And the Cmax [1, 8]?
The Cmax was 3120 ng/mL.

What about the MRT [1, 8] of the same compound?
Its MRT is 23.4 ± 1.8 min.

And the Tmax [1, 8]?
The Tmax was 15 min.

What about the AUC(0-t) [1, 8] of the same compound?
Its AUC(0-t) is 1040 ng·h/mL.

What about the AUC [1, 8] of the same compound?
Its AUC is 1050 ± 160 ng·h/mL.

And the half-life ([1]; WRAIR formulation (AS/0.3M PBS Buffer), Period 2, Day 3, read-out: t1/2 distribution (converted))?
Its half-life is 5.4 ± 8.4 min.

What about the half-life ([1]; WRAIR formulation (AS/0.3M PBS Buffer), Period 2, Day 3, read-out: t1/2 elimination (converted)) of the same compound?
The half-life was 52.8 ± 8.4 min.

And the “90% CI for the difference between the two i.v. formulations, AUC1–3D” value ([2]; Sprague-Dawley, iv)?
The value was 79.11–120.89%.

And the “90% CI of the difference between the two intravenous formulations, AUCD3” value ([2]; Sprague-Dawley, iv, 3 day)?
The value was 71.32–128.67%.

What about the “90% CI for T/R, Lower, AUCD1” value [2, 13] of the same compound?
Its value is 82.04%.

And the “90% CI for T/R, Upper, AUCD1” value [2, 13]?
Its value is 117.96%.

What about the “BE (bioequivalence), AUCD1” value [2] of the same compound?
The value was “Yes”.

And the “BE (bioequivalence), Cmax D1” value [2]?
The value was “No”.

And the “90% CI between the two intravenous formulations, AUC0–3 h” value ([2]; iv)?
The value was 82.04–117.96%.

What about the “activity compared with other artemisinin derivatives” value [3] of the same compound?
The value was 3-5 fold.

What about the “elimination half-life (t1/2)” value [4] of the same compound?
The value was 40 to 60 min.
